According to paper PMC8574161 (Journal of chemical information and modeling, 2021):
Values joined by “and” are separate entries in the source; they are usually repeats but may differ in a detail not shown here. Identical values can stand only once. Counter-ions that a name gives are not always drawn. Like-named read-outs stand apart in the source and are kept apart here.

Key:
[1] = system: SARS-CoV-2; conditions: Calu-3 cells; cited from earlier work
[2] = system: SARS-CoV-2; assay: Vero 76 reduction of virus-induced cytopathic effect; type: cell-based; conditions: Severe acute respiratory syndrome coronavirus 2, Vero 76, Vero 76
[3] = target: SARS-CoV-2 Spike RBD protein (Severe acute respiratory syndrome coronavirus 2, UniProt P0DTC2); assay: Microscale thermophoresis binding to Spike RBD; conditions: MST, 5 nM labeled Spike RBD, 23°C, quadruplicate
[4] = system: SARS-CoV-2; conditions: Vero E6 cells; cited from earlier work
[5] = system: SARS-CoV-2 (isolate USA WA1/2020); assay: microbe, parasite or virus in culture; type: cell-based; conditions: Severe acute respiratory syndrome coronavirus 2, Calu-3, 48 h
[6] = Vero 76 cytotoxicity in uninfected toxicity cultures; conditions: African green monkey, CC50, Vero 76
[7] = system: SARS-CoV-2; assay: microbe, parasite or virus in culture
[8] = in vitro; conditions: human
[9] = Calu3 toxicity; type: cell-based; conditions: human, Calu3 cells infected with SARS-CoV-2
[10] = system: SARS-CoV-2; conditions: compared with CC50
[11] = system: SARS-CoV-2; conditions: Vero cells; cited from earlier work
[12] = Neutral Red (Cytopathic effect/Toxicity)
[13] = Visual (Cytopathic effect/Toxicity)
[14] = Severe acute respiratory syndrome coronavirus 2, Caco-2, 72 h

Compound: C[C@H]1[C@H](OC(=O)CCC(=O)O)O[C@@H]2O[C@@]3(C)CC[C@H]4[C@H](C)CC[C@@H]1[C@@]24OO3 [Artesunate]
- IC50 [1]: 1.76 µM

Compound: CCCCN(CCCC)CC(O)c1cc(Cl)cc2c1-c1ccc(Cl)cc1/C2=C/c1ccc(Cl)cc1 (centres unmarked) [Lumefantrine]
- EC50 [2, 12]: 54 µM
- EC50 [2, 13]: > 60 µM
- Kd [3]: 0.259 µM and ~0.25 µM
- EC50 [4]: 23.2 µM
- IC50 [5]: > 20 µM
- CC50 [6, 12]: 177 µM
- CC50 [6, 13]: > 60 µM
- EC90 [7, 14]: 10 µM
- CC50 at 3 days [8]: 10 µM
- CC50 at 48 h [9]: > 20 µM

Compound: C=C[C@]1(C)C[C@@H](OC(=O)CSCCN(CC)CC)[C@]2(C)[C@H](C)CC[C@]3(CCC(=O)[C@H]32)[C@@H](C)[C@@H]1O [Tiamulin fumarate]
- EC90 [7, 14]: 65 µM
- CC50 at 3 days [8]: > 100 µM

Compound: COc1cc2c(cc1OC)C1CC(=O)C(CC(C)C)CN1CC2 (centres unmarked) [Tetrabenazine]
- EC90 ([7]; Severe acute respiratory syndrome coronavirus 2, Caco-2): > 100 µM
- CC50 at 3 days [8]: > 100 µM
- activity against SARS-CoV-2 in Caco-2 cells (in words) [10]: inactive

Compound: CCCC1O[C@@H]2C[C@H]3[C@@H]4CCC5=CC(=O)C=C[C@]5(C)[C@H]4[C@@H](O)C[C@]3(C)[C@]2(C(=O)CO)O1 (some centres unmarked) [Budesonide]
- EC90 [7, 14]: > 10 µM
- CC50 at 3 days [8]: 10 µM
- activity against SARS-CoV-2 in Caco-2 cells (in words) [10]: no activity

Compound: Cc1cn(-c2cc(NC(=O)c3ccc(C)c(Nc4nccc(-c5cccnc5)n4)c3)cc(C(F)(F)F)c2)cn1 [Nilotinib]
- potency [11]: sub-micromolar
